According to ChEMBL document CHEMBL1201862, “PubChem BioAssay data set” (2004):
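Cultured in 96-well plates, cells were exposed to test compound for 48 hours across five concentrations. GI50 = concentration required for 50% inhibition of growth.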 The source made the active and inactive calls. No stated cut-off is given here; in the data, active = GI50 up to about 1.1 µM and inactive = higher.

Legend:
Test in all cases: DTP human tumour cell line panel, 48 h
MDA-N = test system: MDA-N
NCI-H23 = test system: NCI-H23
NCI-H226 = test system: NCI-H226
Malme-3M = test system: Malme-3M
DU-145 = test system: DU-145
SF-268 = test system: SF-268
NCI-H522 = test system: NCI-H522
MDA-MB-435 = test system: MDA-MB-435
Hs-578T = test system: Hs-578T
T47D = test system: T47D
HOP-92 = test system: HOP-92
M14 = test system: M14
OVCAR-3 = test system: OVCAR-3
UO-31 = test system: UO-31
HT-29 = test system: HT-29
HOP-62 = test system: HOP-62
MCF7 = test system: MCF7
A498 = test system: A498
SW-620 = test system: SW-620

SMILES	GI50 (MDA-N)	GI50 (NCI-H23)	GI50 (NCI-H226)	GI50 (Malme-3M)	GI50 (DU-145)	GI50 (SF-268)	GI50 (NCI-H522)	GI50 (MDA-MB-435)	GI50 (Hs-578T)	GI50 (T47D)	GI50 (HOP-92)	GI50 (M14)	GI50 (OVCAR-3)	GI50 (UO-31)	GI50 (HT-29)	GI50 (HOP-62)	GI50 (MCF7)	GI50 (A498)	GI50 (SW-620)
c1ccc(C[n+]2cccc(-c3cc4ccccc4[nH]3)c2)cc1	19.1 µM (inactive)	16.4 µM (inactive)	31.2 µM (inactive)	14.6 µM (inactive)	47.4 µM (inactive)	17.6 µM (inactive)	16.4 µM (inactive)	18.5 µM (inactive)	20.2 µM (inactive)	23.6 µM (inactive)	16.4 µM (inactive)	21.7 µM (inactive)	31 µM (inactive)	> 100 µM (inactive)	32.5 µM (inactive)	31.8 µM (inactive)	27.6 µM (inactive)	39.5 µM (inactive)	72.6 µM (inactive)
COc1ccc(OC/C(N)=N/NC(=O)c2ccncc2)cc1	> 100 µM (inactive)	> 100 µM (inactive)	–	> 100 µM (inactive)	> 100 µM (inactive)	> 100 µM (inactive)	> 100 µM (inactive)	> 100 µM (inactive)	> 100 µM (inactive)	> 100 µM (inactive)	> 100 µM (inactive)	> 100 µM (inactive)	> 100 µM (inactive)	–	> 100 µM (inactive)	> 100 µM (inactive)	> 100 µM (inactive)	> 100 µM (inactive)	> 100 µM (inactive)
Cc1ccc(/C=N/NS(=O)(=O)c2ccc(/C=C3\NC(=O)NC3=O)cc2)cc1	> 100 µM (inactive)	> 100 µM (inactive)	> 100 µM (inactive)	> 100 µM (inactive)	> 100 µM (inactive)	22.1 µM (inactive)	–	> 100 µM (inactive)	24.2 µM (inactive)	> 100 µM (inactive)	53.7 µM (inactive)	> 100 µM (inactive)	> 100 µM (inactive)	> 100 µM (inactive)	> 100 µM (inactive)	27.6 µM (inactive)	> 100 µM (inactive)	> 100 µM (inactive)	> 100 µM (inactive)
CC1(C)OCC(C2CCC3(C)C4=CCC5C(C)(C)C(O)CCC5(C)C4CCC23C)CC(O)C1O (stereo not drawn)	17.9 µM (inactive)	17.8 µM (inactive)	17.3 µM (inactive)	15.6 µM (inactive)	14.7 µM (inactive)	18.3 µM (inactive)	20 µM (inactive)	16.4 µM (inactive)	19.9 µM (inactive)	8.61 µM (inactive)	16.2 µM (inactive)	16.9 µM (inactive)	14.6 µM (inactive)	16.7 µM (inactive)	18.2 µM (inactive)	–	20.7 µM (inactive)	24.7 µM (inactive)	17.8 µM (inactive)
N=C(N)N/N=C/c1c(-c2ccc(Cl)cc2)nc2sc(Cl)cn12	1.72 µM (inactive)	1.08 µM (active)	1.94 µM (inactive)	–	1.95 µM (inactive)	1.7 µM (inactive)	2.04 µM (inactive)	1.3 µM (inactive)	1.85 µM (inactive)	1.12 µM (inactive)	1.69 µM (inactive)	1.9 µM (inactive)	1.55 µM (inactive)	1.68 µM (inactive)	0.646 µM (active)	1.85 µM (inactive)	1.53 µM (inactive)	1.74 µM (inactive)	1.09 µM (active)
CC(=O)Nc1ccc2c3c(cc(O)c2c1)N(C(=O)CCCC(=O)Nc1ccc2c4c(cc(O)c2c1)N(C(=O)OC(C)(C)C)CC4CCl)CC3CCl (stereo not drawn)	1.05 µM (active)	1.42 µM (inactive)	–	0.78 µM (active)	0.769 µM (active)	0.195 µM (active)	0.371 µM (active)	0.938 µM (active)	1.55 µM (inactive)	0.418 µM (active)	2.01 µM (inactive)	3.22 µM (inactive)	1.1 µM (active)	> 38.5 µM (inactive)	1.19 µM (inactive)	2.01 µM (inactive)	0.225 µM (active)	1.02 µM (active)	1.82 µM (inactive)
CC(=O)N(C)c1ccc(/N=C/N(C)C)cc1	> 100 µM (inactive)	> 100 µM (inactive)	> 100 µM (inactive)	> 100 µM (inactive)	> 100 µM (inactive)	> 100 µM (inactive)	> 100 µM (inactive)	> 100 µM (inactive)	> 10 µM (inactive)	> 100 µM (inactive)	> 100 µM (inactive)	> 100 µM (inactive)	44 µM (inactive)	> 100 µM (inactive)	> 100 µM (inactive)	> 100 µM (inactive)	82.4 µM (inactive)	> 100 µM (inactive)	–
C1=C\SS/C=C\SS/C=C\SS/C=C\SS/1	> 100 µM (inactive)	> 100 µM (inactive)	> 100 µM (inactive)	41.7 µM (inactive)	> 100 µM (inactive)	70.8 µM (inactive)	15.2 µM (inactive)	> 100 µM (inactive)	> 100 µM (inactive)	> 100 µM (inactive)	75.7 µM (inactive)	83.9 µM (inactive)	–	> 100 µM (inactive)	31.6 µM (inactive)	69.7 µM (inactive)	46.7 µM (inactive)	> 100 µM (inactive)	51.4 µM (inactive)
COc1cc(C(C)(C)C)c(OC(=O)/C=C/C(=O)O/C=C/[N+](=O)[O-])c(C(C)(C)C)c1	44.7 µM (inactive)	19.4 µM (inactive)	28.1 µM (inactive)	–	38.2 µM (inactive)	30.2 µM (inactive)	29.9 µM (inactive)	21.2 µM (inactive)	28.6 µM (inactive)	41.8 µM (inactive)	> 100 µM (inactive)	21.1 µM (inactive)	32.7 µM (inactive)	28.1 µM (inactive)	21.1 µM (inactive)	> 100 µM (inactive)	13.5 µM (inactive)	44.4 µM (inactive)	28.4 µM (inactive)
Nc1nc(Nc2ccc(Cl)cc2)sc1C(=O)c1cc2ccccc2oc1=O	37.3 µM (inactive)	2.93 µM (inactive)	> 100 µM (inactive)	19.1 µM (inactive)	74.6 µM (inactive)	18.3 µM (inactive)	–	23.7 µM (inactive)	27.2 µM (inactive)	27.7 µM (inactive)	53.2 µM (inactive)	68.9 µM (inactive)	4.84 µM (inactive)	> 100 µM (inactive)	72.4 µM (inactive)	12.9 µM (inactive)	25 µM (inactive)	19.2 µM (inactive)	54.1 µM (inactive)
COc1ccccc1CCN1CCN(CCCc2ccccc2)CC1	58.9 µM (inactive)	–	72.9 µM (inactive)	> 100 µM (inactive)	> 100 µM (inactive)	> 100 µM (inactive)	32.4 µM (inactive)	85.5 µM (inactive)	> 100 µM (inactive)	55.3 µM (inactive)	0.524 µM (active)	24.2 µM (inactive)	> 100 µM (inactive)	46.3 µM (inactive)	28.8 µM (inactive)	> 100 µM (inactive)	79.6 µM (inactive)	70.8 µM (inactive)	> 100 µM (inactive)
O=C(NC(CO)Cc1ccc(Oc2cc(CC(CO)NC(=O)OCc3ccccc3)ccc2OC(=O)OCc2ccccc2)cc1)OCc1ccccc1 (stereo not drawn)	16.6 µM (inactive)	16.1 µM (inactive)	16.9 µM (inactive)	16.7 µM (inactive)	21 µM (inactive)	23.5 µM (inactive)	–	16.6 µM (inactive)	5.97 µM (inactive)	5.18 µM (inactive)	19.5 µM (inactive)	18.2 µM (inactive)	19.5 µM (inactive)	18.2 µM (inactive)	14.2 µM (inactive)	20.2 µM (inactive)	11.8 µM (inactive)	14.7 µM (inactive)	26.3 µM (inactive)
COC(CC1(/C=C/O[Si](C(C)C)(C(C)C)C(C)C)C(=O)N(C)c2ccccc21)OC (stereo not drawn)	> 100 µM (inactive)	42.1 µM (inactive)	24.1 µM (inactive)	–	> 100 µM (inactive)	36.6 µM (inactive)	–	76.2 µM (inactive)	15.9 µM (inactive)	55.3 µM (inactive)	> 100 µM (inactive)	94.8 µM (inactive)	> 100 µM (inactive)	68.2 µM (inactive)	–	58.1 µM (inactive)	36.8 µM (inactive)	> 100 µM (inactive)	> 100 µM (inactive)
COCCc1c(C)c(C#N)c2n(C)c3ccccc3n2c1=O	> 10 µM (inactive)	> 10 µM (inactive)	> 10 µM (inactive)	> 10 µM (inactive)	> 10 µM (inactive)	> 10 µM (inactive)	> 10 µM (inactive)	> 10 µM (inactive)	> 10 µM (inactive)	> 10 µM (inactive)	> 10 µM (inactive)	> 10 µM (inactive)	> 10 µM (inactive)	–	> 10 µM (inactive)	> 10 µM (inactive)	> 10 µM (inactive)	> 10 µM (inactive)	> 10 µM (inactive)
CC/C=C/c1cc2c(cc1O)CCC1C2CC[C@@]2(C)C1CC[C@@H]2O (stereo partly drawn)	0.199 µM (active)	3.33 µM (inactive)	1.47 µM (inactive)	0.524 µM (active)	2.76 µM (inactive)	10.2 µM (inactive)	0.475 µM (active)	0.246 µM (active)	1.65 µM (inactive)	2.86 µM (inactive)	12 µM (inactive)	1.17 µM (inactive)	0.265 µM (active)	6.03 µM (inactive)	7.93 µM (inactive)	–	1.08 µM (active)	2.56 µM (inactive)	1.12 µM (active)
